Common to all, as to test: DTP human tumour cell line panel, 48 h
In assay [1] the test system is SNB-75 CNS.
In assay [2] the test system is SN12C renal.
Assay [3] relates to SNB-78 CNS.
For assay [4], the system named is SF-539 CNS.
The test system of assay [5] is SW-620 colon.
Assay [6] relates to MDA-MB-435.
The subject of assay [7] is PC-3 prostate.
Assay [8] has as its system DU-145 prostate.
Assay [9] deals with UACC-257 melanoma.
Assay [10] relates to MOLT-4 leukemia.
The test system of assay [11] is ACHN renal.

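Dose response: 5 concentrations. Exposure: 48 h. Format: 96-well plates. Endpoint: linear interpolation; highest concentration if not reached. Abbreviation: GI50, concentration required for 50% inhibition of growth. At the TGI there is no net growth.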

On to `Nc1ccn(C2OC(CO)C(O)C2O)c(=O)c1` (stereo not given), for which the TGI in assay [1] was more than 625 µM; in assay [2] it was 381 µM; in assay [3], more than 625 µM; in [4], more than 625 µM; in assay [5] it was more than 625 µM.

For the compound `CN1C2CCC1CC(C)(O)C2` (stereo not given), the concentration for total growth inhibition (TGI) in [6], in assay [7], in [2], in assay [8], in assay [5] and in assay [9] was more than 100 µM in each case. The TGI in assay [10] is more than 100 µM.

Turning to `COc1ccc(-c2nn(-c3ccc(NC(=O)Nc4cc(C(F)(F)F)cc(C(F)(F)F)c4)cc3)cc2-c2ccncc2)cc1Cl`, the GI50 in [6] was 3.03 µM; in assay [1], 1.8 µM; in assay [7] it was 1.73 µM; in assay [2], 3.13 µM; in [8] it was 4.25 µM; in assay [4] it was 1.87 µM. For the same compound, the GI50 in assay [5] was 2.99 µM; in assay [9], 3.5 µM; in assay [11] it was 2.75 µM. Besides, the TGI in [6] was more than 100 µM; in assay [1], 8.11 µM; in [7], more than 100 µM; in [2], 16.6 µM; in assay [8] it was more than 100 µM; in assay [4], 5.37 µM. The values for the concentration for total growth inhibition (TGI) in assay [5], in assay [9] and in assay [11] were more than 100 µM, 12.5 µM and 58.5 µM, respectively.

With `COc1ccc(N2C(=O)CSC2c2c[nH]c3ccccc23)cc1` (stereo not given), the TGI in assay [6], in [1], in assay [7], in [2], in [8] and in assay [5] was more than 100 µM each time. Further, the total growth inhibition concentration (TGI) in assay [9] and in assay [10] was more than 100 µM throughout.

On to `O=C(N/N=C/c1cc(Br)cc(Br)c1[O-])c1ccccc1O.O=C(N/N=C/c1cc(Br)cc(Br)c1[O-])c1ccccc1O.[Cu+2]`, for which the concentration for total growth inhibition (TGI) amounted to 1.99 µM in [1]; 0.926 µM in assay [4]; 1.74 µM in assay [9]; 2.54 µM in assay [10]; 2.42 µM in assay [11].

For the compound `COc1ccc(C2COc3cc(O)c(O)cc3C2)cc1` (stereo not given), the total growth inhibition concentration (TGI) is 164 µM in [1]; 166 µM in assay [2]; 268 µM in [3]; 136 µM in [4]; 181 µM in assay [9]; 24.6 µM in assay [10].

`O=c1c(C(c2ccc(Cl)cc2)c2c(O)c3ccccc3n(-c3ccccc3)c2=O)c(O)c2ccccc2n1-c1ccccc1`: the TGI in assay [2] is more than 100 µM; in assay [3] it was more than 100 µM; in assay [4], more than 100 µM; in assay [5], more than 100 µM; in assay [10] it was more than 100 µM; in [11], 98.5 µM.

For the origin of these results see PubChem BioAssay (NCI).
